62 compounds from a melting point compilation (Tetko et al.; mined from patent text by program, amines drawn as free bases though some values may be those of a salt) can be followed below.

Each structure is given as a SMILES string.

The melting point is the temperature of the solid-liquid transition. Regarding `CC(C)(C(=O)O)C1([N+](=O)[O-])OC2=CC=CC2=CC1c1ccccc1` (configuration not stated), the melting point is 256 to 258 °C.
To `CC(C)(C)OC(=O)NCCON=C(c1ccccc1)c1cc2ccncc2[nH]1` belongs 84 to 88 °C; to `COc1ccc2sc(C(=O)O)c(Oc3ccccc3)c2c1`, 197 °C; to `Cc1ccc(C=C(F)C(=O)NC(Cc2ccccc2)C(=O)O)cc1` (configuration not stated), 163 to 164 °C.
To `O=c1nc(-c2ccccc2F)c2cc(Cl)ccc2[nH]1` belongs over 300 °C.
In the case of `N[C@@H](CCC1CCCCC1)C(=O)O`, the melting point fell in the range of 265 to 266 °C.
`COC(=O)CCC/C=C(/c1cc(C)c2on(C)c(=O)c2c1)c1cc(C)c2oc(=O)n(C)c2c1` displayed a melting point of 152 to 154 °C.
The same measure for `Cc1c(NC(=O)c2ccc(OCC3CCOC3)cc2)ccc2cc(CN3CCC(C)(O)CC3)cnc12` (configuration not stated): 160 to 162 °C; for `COc1ccc(Cn2c(=O)c3cc(Cl)ccc3n(CCCCBr)c2=O)cc1`: 146 to 147 °C.
To `CC1C(=O)N(c2ccc(Sc3ccccc3)cc2)C(=S)N1c1ccccc1` (configuration not stated) belongs 136 to 138 °C.
On to `O=C1CN(Cc2ccccn2)CC(=O)N1CCCN1CCN(c2ccc(F)cc2)CC1`, for which the melting point is 90 °C.
Regarding `O=C1Nc2ccc(Cl)cc2C(c2ccc3[nH]c(=O)n(CCCO)c3c2)=N[C@H]1Cc1ccccc1Cl`, the melting point was found to be 210 °C.
The same measure for `CC(C)(C)NC(=O)[C@@H]1CCCC[C@H]1C[C@@H](O)[C@H](Cc1ccccc1)NC(=O)[C@H](CC(N)=O)NC(=O)OCc1ccccc1`: 195 to 199 °C.
To `CCCC(=O)Nc1n[nH]c2cc(-c3ccc(F)cc3)ccc12` belongs 232 °C; to `CCCOc1ccccc1C=C(C=O)C(C=O)=Cc1ccccc1OCCC`, 109 to 110 °C; to `Cc1ccc(C(=O)Nc2c(NC(=O)CCl)ccc3c2C(=O)c2ccccc2C3=O)cc1`, 198 to 199 °C.
The same measure for `O=C(O)C(CC(=O)N1Cc2ccc(F)cc2C1)Cc1ccccc1` (configuration not stated): 136 to 138 °C.
In the case of `CC(C)(C)C1CC=C(c2cc(C(F)(F)F)cc3[nH]c(N4CCN(c5ncccc5C(F)(F)F)CC4)nc23)CC1` (configuration not stated), the melting point was 96 to 97.7 °C.
The compound `CCOC(=O)C1=CNC2=C(C(=O)Nc3ccccc3)CCN2C1=O` displayed a melting point of 240 to 241 °C.
The same measure for `CCOc1cccc(CC(=O)O)c1OCCCc1cn(-c2ccc(C(F)(F)F)cn2)nc1C(C)C`: 141 to 142 °C; for `COc1ccc(-c2csc(C(=O)Nc3cc4ccccc4cn3)n2)cc1OC`: 196 to 202 °C.
In the case of `CN1CCC(Oc2ccccc2)(c2ccccc2)CC1`, the melting point lay in the range of 99 to 101 °C.
To `CCN(CC)C(=O)c1ccc2ccccc2c1-c1cccc(COC(C)(C)C)c1` belongs 117 to 119 °C; to `Cc1cccc(C)c1NC(C)CN(C)C=O` (configuration not stated), 69.5 to 72 °C; to `COc1c2c(cc3c1OCO3)C(O)CN(C)C2` (configuration not stated), 151 to 153 °C.
To `Cn1ncnc1COc1nc2c(cc1C(C)(C)C)nnn2-c1ccccc1F` belongs 115 to 117 °C.
To `O=C(Nc1ccc(N(Cc2ccccc2)C(=O)OCc2ccccc2)c(F)c1)OCc1ccccc1` belongs 101 to 102 °C; to `COc1ccc(-c2ccc3c(c2)CCCC3=O)c2c1OCCO2`, 156 to 158 °C.
Regarding `O=C(NN1CCCCC1)c1nc(-c2ccc(Cl)cc2Cl)n(-c2ccc(Cl)cc2)c1Br`, the melting point fell in the range of 182 to 183 °C.
To `CC(=O)Oc1c(Oc2ccccc2)c(Oc2ccccc2)c(OC(C)=O)c2ccccc12` belongs 173 to 174 °C.
The same measure for `COc1ccccc1COc1ccc(-c2cc(O)c(SCCc3ccccc3)c(=O)o2)cc1`: 138 to 139 °C.
The compound `CS(=O)(=O)Nc1cccc(C=C2SC(=S)NC2=O)c1` yielded a melting point of 260 to 265 °C.
The same measure for `Cc1cc(C)nc(-c2ccc(CN3CCN(c4ccc(O)cc4)CC3)cc2)n1`: 165 to 167 °C; for `Oc1ccc(NC2CCc3cc(O)ccc3C2)cc1` (configuration not stated): 193 to 195 °C; for `CCC(C)(CC)C(=O)N[C@H]1C[C@@H]2c3cccc4[nH]c(C)c(c34)C[C@H]2N(C)C1`: 191 to 192 °C.
The same measure for `O=c1cc2c(nn1-c1ccc(Cl)cc1)-c1cc(Br)sc1S(=O)CC2` (configuration not stated): 184 to 185 °C; for `O=C(O)c1ccc(NC(=O)C(F)(F)F)nc1`: over 255 °C.
The same measure for `CN(C)C1(c2ccccc2)CCC(NC(=S)NCCc2c[nH]c3ccccc23)CC1` (configuration not stated): 98 to 103 °C; for `Cc1[nH]cnc1CN1CCC(N)=CC1=O`: 268 to 271 °C; for `CC1(C)CCSc2cccc(CO)c21`: 53 °C.
For the compound `OCCN1CCOC(c2ccccc2)(c2ccccc2)CC1`, the melting point lay in the range of 122 to 123 °C.
The same measure for `Clc1ccccc1CSc1nc2cccc3c2n1CCC3`: 157 to 159 °C; for `Cc1cnc(CCC(C)C#N)c(N)c1` (configuration not stated): 112 to 114 °C; for `Cc1ccc(-c2ncc3c(n2)CCCC3)nc1-c1ccc(C=O)cc1`: 151 to 154 °C.
The same measure for `O=S(=O)(CC(F)(F)F)Nc1ccc(Oc2ccc(F)cc2F)cc1`: 105 to 108 °C; for `O=[N+]([O-])c1cccc(NN=C(c2ccc(Cl)cc2)c2ccc(Cl)cc2)c1`: 170 to 172 °C.
On to `Cc1ccc(C(=O)OCCOC(=O)NC2(C(=O)O)CC2)cc1`, for which the melting point was 178 to 182 °C.
The same measure for `Cn1c(=O)c(-c2ccccc2Cl)cc2cnc(N[C@H]3CC[C@H](NS(C)(=O)=O)CC3)nc21`: 261 °C; for `Cc1ncsc1C(C)(O)c1ccoc1` (configuration not stated): 102 to 104 °C.
`CS(=O)(=O)c1ccc(-c2sc(CC#N)nc2-c2ccc(F)cc2)cc1` came in with a melting point of 151 to 152 °C.
The same measure for `N#CSCCNc1ccccc1[N+](=O)[O-]`: 112 to 113 °C.
The same measure for `CC(=O)NC[C@H]1CN(c2ccc3c(c2)OCC(C)N3)C(=O)O1` (some centres not stated): 163 to 165 °C.
The same measure for `O=[N+]([O-])c1ccc(OCCc2ccc(CO)cn2)cc1`: 144 to 145 °C.
Compound `COc1c(C2CCN(CCCCNC(=O)c3[nH]nc(-c4ccc(C#N)cc4)c3C)CC2)ccc2c1CCCC2` registered a melting point of 222 °C.
The compound `CCOCCn1c(C(=O)C2CCN(CCC3(c4ccccc4)CCN(C(=O)c4cc(OC)c(OC)c(OC)c4)C3)CC2)nc2ccccc21` (configuration not stated) showed a melting point of 65 to 70 °C.
For the compound `Cc1oc(-c2ccccc2)nc1COc1ccc(Cn2cc(CCC(=O)O)c(OC(C)C)n2)cc1`, the melting point fell in the range of 106 to 107 °C.
To `COc1ccc(-c2[nH]nc3c2C(=O)c2c(NC(=O)Cc4ccc(Cl)cc4Cl)cccc2-3)cc1` belongs 286 °C.
`O=C1CCC(c2ccc3c(c2)OCO3)CC1`: the melting point lay in the range of 92 to 93.5 °C.
In the case of `O=[N+]([O-])c1cc(-c2csc(-c3cccnc3)n2)cc(O)c1O`, the melting point fell in the range of 279 to 281 °C.
To `CNC(=O)n1nc(Oc2ncc(C(F)(F)F)cc2Cl)c(C)c1C` belongs 117 to 118 °C.
The compound `COc1ccc(S(=O)(=O)N2C(=O)C(CC(=O)N3CCN(c4ccccn4)CC3)(c3ccccc3Cl)c3cc(C)ccc32)c(OC)c1` (configuration not stated) displayed a melting point of 239 °C.
The same measure for `Cc1cccc(NC(=N)Nc2cccc(C)c2)c1`: 105 to 106 °C.
